Reference: patent US6051389A, “Enzyme sensor” (Radiometer Medical A/S, priority 1996, dated 2000)
Counter-ions that a name gives are not always drawn.

Test system: lactate oxidase
Assay: Enzyme Stability Test: oxalate as stabilising agent for lactate oxidase in S4932 rinse solution (Example 5)
Format: biochemical, Pediococcus
Method: Colorimetric lactate oxidase assay
The formation of H2 O2 is determined in a peroxidase (POD) assay system where a quinonimine dye is formed. The amount of formed quinonimine dye is determined spectrophotometically at 490 nm.
100 μL of Reagent A is added to a well of a microtiterplate (Immunoplate, Nunc, Roskilde, Denmark). The colour reaction is started by adding 100 μL of the Enzyme Solution. Immediately afterwards, the microtiterplate is placed in the plate-holder of a THERMOmax incubator (Molecular Devices, Menlo Park, Calif., USA) pre-set to: 37° C., kinetic mode, lag-time 5 min., reading time 15 min., and automix.
The enzymatic activity of lactate oxidase (and also other enzymes) is decreasing exponentially. Therefore, the half-life period (t1/2) for the enzymatic activity will be independent of the initial concentration, and, thus, t1/2 is an excellent expression for the stability of an enzyme under various conditions.
The enzymatic activity is determined (as described in the Enzyme Activity Test above) for the enzyme composition in question at least four times over a relevant period, e.g. every day for at least four days (day 0 to day 3). t1/2 is then calculated following standard mathematical methods.
A solution of 0.04 U/mL lactate oxidase in S4932 rinse solution (Radiometer Medical A/S, Copenhagen, Denmark) was prepared. Disodium oxalate corresponding to a total concentration of 1, 2, 4, 8, and 16 mM of oxalate was added. The enzymatic activity of the solutions was determined five times over a period of 13 days. The enzymatic stability of these solutions was compared with the enzymatic stability of a solution without oxalate.

Enzymatic Activity (oxalate 1 mM, time 0 h, 0.04 U/mL lactate oxidase): 13.76 mOD/min.
Enzymatic Activity (oxalate 1 mM, time 68.5 h): 11.47 mOD/min.
Enzymatic Activity (oxalate 1 mM, time 148 h): 11.01 mOD/min.
Enzymatic Activity (oxalate 1 mM, time 199 h): 9.89 mOD/min.
Enzymatic Activity (oxalate 1 mM, time 319 h): 8.67 mOD/min.
Enzymatic Activity (oxalate 2 mM, time 0 h, 0.04 U/mL lactate oxidase): 13.63 mOD/min.
Enzymatic Activity (oxalate 2 mM, time 68.5 h): 12.08 mOD/min.
Enzymatic Activity (oxalate 2 mM, time 148 h): 11.07 mOD/min.
Enzymatic Activity (oxalate 2 mM, time 199 h): 9.92 mOD/min.
Enzymatic Activity (oxalate 2 mM, time 319 h): 8.63 mOD/min.
Enzymatic Activity (oxalate 4 mM, time 0 h, 0.04 U/mL lactate oxidase): 12.87 mOD/min.
Enzymatic Activity (oxalate 4 mM, time 68.5 h): 11.90 mOD/min.
Enzymatic Activity (oxalate 4 mM, time 148 h): 11.36 mOD/min.
Enzymatic Activity (oxalate 4 mM, time 199 h): 10.36 mOD/min.
Enzymatic Activity (oxalate 4 mM, time 319 h): 9.60 mOD/min.
Enzymatic Activity (oxalate 8 mM, time 0 h, 0.04 U/mL lactate oxidase): 11.86 mOD/min.
Enzymatic Activity (oxalate 8 mM, time 68.5 h): 11.34 mOD/min.
Enzymatic Activity (oxalate 8 mM, time 148 h): 10.86 mOD/min.
Enzymatic Activity (oxalate 8 mM, time 199 h): 9.84 mOD/min.
Enzymatic Activity (oxalate 8 mM, time 319 h): 9.33 mOD/min.
Enzymatic Activity (oxalate 16 mM, time 0 h, 0.04 U/mL lactate oxidase): 10.37 mOD/min.
Enzymatic Activity (oxalate 16 mM, time 68.5 h): 10.15 mOD/min.
Enzymatic Activity (oxalate 16 mM, time 148 h): 9.72 mOD/min.
Enzymatic Activity (oxalate 16 mM, time 199 h): 8.81 mOD/min.
Enzymatic Activity (oxalate 16 mM, time 319 h): 8.65 mOD/min.
Structure (SMILES): O=C(O)C(=O)O [Oxalate, disodium oxalate]
